Laboratory results reported in patent US20180094139A1 (priority 2014, published 2018).

Key:
[1] = molecular target: BlaC (Mycobacterium tuberculosis, UniProt P9WKD3); format: biochemical
[2] = system: β-lactamase-expressing bacteria; format: cell-based
[3] = Stability of fluorogenic probes in MES buffer (spontaneous hydrolysis); format: physicochemical; conditions: 0.1 M, pH 6.6, room temperature (22° C.)
[4] = system: K. pneumoniae with Class A carbapenemase KPC; format: cell-based; conditions: 10^5 c.f.u., probe 10 μM, 3 h incubation
[5] = system: E. cloacae with AmpC β-lactamase; format: cell-based; conditions: 10^5 c.f.u., probe 10 μM, 3 h incubation
[6] = system: penicillinase isolated from Bacillus cereus (Pen); conditions: probe 10 μM, 3 h incubation with diluted Pen
Procedure: Data were collected in a 384-well plate with a total volume of 25 μL in each well. Fluorescence was measured with excitation at 490 nm and emission at 535 nm. Relative fluorescence represents the difference in fluorescence intensity with and without β-lactamase incubation. […] Error bars are ±SD.

Sequence of BlaC (P9WKD3 35-307 limits assumed): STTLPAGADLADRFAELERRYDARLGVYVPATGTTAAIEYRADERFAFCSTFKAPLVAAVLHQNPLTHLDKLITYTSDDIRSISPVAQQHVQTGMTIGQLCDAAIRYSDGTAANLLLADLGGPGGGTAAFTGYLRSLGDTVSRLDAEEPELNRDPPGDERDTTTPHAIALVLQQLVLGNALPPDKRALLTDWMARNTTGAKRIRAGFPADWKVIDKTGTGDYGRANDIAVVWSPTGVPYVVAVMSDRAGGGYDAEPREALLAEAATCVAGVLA

SMILES: O=C(Cc1ccccc1)N[C@@H]1C(=O)N2C(C(=O)O)=C(COc3ccc4ccc(=O)oc4c3)C3(CC3)S[C@H]12 [CDC-Cp, (6R,7R)-3-(((2-oxo-2H-chromen-7-yl)oxy)methyl)-7-(2-phenylacetamido)-2-azaspiro[2,1′-cyclopropane]-3-cephem-2-carboxylic acid]
- catalytic efficiency (kcat/Km) for BlaC over TEM-1 Bla [1]: around 10 fold

SMILES: CO[C@@]1(NC(=O)Cc2ccccc2)C(=O)N2C(C(=O)O)=C(COc3ccc4ccc(=O)oc4c3)C3(CC3)S[C@@H]21 [CDC-OMe-Cp, (6R,7S)-7-methoxy-3-(((2-oxo-2H-chromen-7-yl)oxy)methyl)-7-(2-phenylacetamido)-2-azaspiro[2,1′-cyclopropane]-3-cephem-4-carboxylic acid]
- catalytic efficiency (kcat/Km) for BlaC over TEM-1 Bla [1]: 6.3×10^4 fold

SMILES: COc1ccc(-c2c3ccc(=O)cc-3oc3cc(OCc4ccc(OCC5=C(C(=O)O)N6C(=O)[C@@H](NC(=O)Cc7ccccc7)[C@H]6SC5)cc4)ccc23)c(C)c1 [CDG-1]
- fluorescence signal with β-lactamase-expressing bacteria (specificity) [2]: fluorescent signal turn-on with all bacteria

SMILES: COc1ccc(-c2c3ccc(=O)cc-3oc3cc(OCc4ccc(OCC5=C(C(=O)O)N6C(=O)[C@](NC(=O)Cc7ccccc7)(OC)[C@H]6SC5)cc4)ccc23)c(C)c1 [CDG-OMe]
- spontaneous hydrolysis rate [3]: 1.9e-07 s⁻¹
- catalytic efficiency (kcat/Km) for BlaC over TEM-1 Bla [1]: 8,900 fold
- fluorescent intensity ratio IKPC/IBlaC [4]: 1/4
- fluorescent intensity ratio of AmpC to BlaC (IAmpC/IBlaC) [5]: 1/9
- fluorescence signal with β-lactamase-expressing bacteria (specificity) [2]: much better selectivity for BlaC over other β-lactamase expressing bacteria
- activity towards penicillinase (Pen) [6]: some activity
